Values after ≈ are worked out from the molar mass of the structure shown.
Assays:
Plasmodium falciparum [1] = assay: Ratio of chloroquine IC50 to compound IC50 for […] Plasmodium falciparum W2; format: functional
Streptococcus pyogenes = assay: Antibacterial activity against clinical isolate Streptococcus pyogenes 3565; format: functional
Liver microsomes [2] = assay: Intrinsic clearance in rat liver microsomes assessed per gram of liver at 1 uM after 60 mins by LC-MS/Ms analysis; format: ADME, Microsome; conditions: 1 h
[3] = Volume of distribution at steady state in CD1 mouse at 12.5 mg/kg, iv and 12.5 mg/kg, po by LC-MS/Ms analysis; format: ADME, organism-based; conditions: in vivo, read-out: Vdss
Liver = assay: Intrinsic clearance in mouse liver microsomes assessed per gram of liver at 1 uM after 60 mins by LC-MS/Ms analysis; format: ADME, Microsome; conditions: 1 h
Mus musculus = assay: Dose normalized AUC in CD1 mouse at 12.5 mg/kg, po by LC-MS/Ms analysis; format: ADME, organism-based; design: dose 12.5 mg/kg, route oral; conditions: in vivo
Plasmodium falciparum [4] = assay: Antimalarial activity against chloroquine-sensitive Plasmodium falciparum 3D7A infected in human A-positive erythrocytes assessed as inhibition of [3H]-hypoxanthine incorporation after 48 hrs by semi-automated microdilution technique; format: functional, organism-based
Moraxella catarrhalis = assay: Antibacterial activity against Moraxella catarrhalis ATCC 23246 by broth microdilution method; format: functional
Plasmodium falciparum [5] = assay: Ratio of azithromycin IC50 to compound IC50 for chloroquine-sensitive Plasmodium falciparum 3D7A; format: functional
Streptococcus pneumoniae = assay: Antibacterial activity against clinical isolate Streptococcus pneumoniae SP030; format: functional
HepG2 = assay: Cytotoxicity against human HepG2 cells after 24 hrs by MTS assay; format: cell-based; conditions: HepG2, 24 h
Plasmodium falciparum [6] = assay: Antimalarial activity against chloroquine and pyrimethamine-resistant Plasmodium falciparum W2 infected in human A-positive erythrocytes assessed as inhibition of [3H]-hypoxanthine incorporation after 48 hrs by semi-automated microdilution technique; format: functional, organism-based
Liver microsomes [7] = assay: Intrinsic clearance in human liver microsomes assessed per gram of liver at 1 uM after 60 mins by LC-MS/Ms analysis; format: ADME, Microsome; conditions: 1 h
[8] = Ratio of drug level in blood to plasma of CD1 mouse at 12.5 mg/kg, iv and 12.5 mg/kg, po by LC-MS/Ms analysis; format: ADME, organism-based
Staphylococcus aureus = assay: Antibacterial activity against Staphylococcus aureus ATCC 13709 by broth microdilution method; format: functional
[9] = Oral bioavailability in CD1 mouse at 12.5 mg/kg by LC-MS/Ms analysis; format: ADME, organism-based; conditions: in vivo
Plasmodium falciparum [10] = assay: Ratio of azithromycin IC50 to compound IC50 for chloroquine and pyrimethamine-resistant Plasmodium falciparum W2; format: functional
[11] = Half life in CD1 mouse at 12.5 mg/kg, iv and 12.5 mg/kg, po by LC-MS/Ms analysis; format: ADME, organism-based; conditions: in vivo
Haemophilus influenzae = assay: Antibacterial activity against Haemophilus influenzae ATCC 49247 by broth microdilution method; format: functional
[12] = Clearance in CD1 mouse at 12.5 mg/kg, iv and 12.5 mg/kg, po by LC-MS/Ms analysis; format: ADME, organism-based; conditions: in vivo

In the case of CC[C@H]1OC(=O)[C@H](C)[C@@H](O[C@H]2C[C@@](C)(OC)[C@@H](O)[C@H](C)O2)[C@H](C)[C@@H](O[C@@H]2O[C@H](C)C[C@H](N(C)CCCNC(=O)CCCNc3ccnc4cc(Cl)ccc34)[C@H]2O)[C@](C)(O)C[C@@H](C)CN(C)[C@H](C)[C@@H](O)[C@]1(C)O, the “Ratio IC50” value (Plasmodium falciparum [1]) is reported as 9, the MIC (Streptococcus pyogenes) is reported as 16 mg/L (≈ 15.4 µM) and the CLint (Liver microsomes [2]) is reported as < 0.6 mL/min/g. The Vd [3] was 116 L/kg, the CLint (Liver) was < 0.6 mL/min/g and the AUC/dose (Mus musculus) was 13.28 ng·h/mL. For the same molecule, the IC50 (Plasmodium falciparum [4]) was 0.077 µM, the MIC (Moraxella catarrhalis) was 4 mg/L (≈ 3.85 µM) and the “Ratio IC50” value (Plasmodium falciparum [5]) was 56. For the same molecule, the MIC (Streptococcus pneumoniae) was 4 mg/L (≈ 3.85 µM), the IC50 (HepG2) was > 50 µM and the IC50 (Plasmodium falciparum [6]) was 0.048 µM. For the same molecule, the CLint (Liver microsomes [7]) was < 0.6 mL/min/g, the blood plasma ratio [8] was 1 and the MIC (Staphylococcus aureus) was > 64 mg/L. For the same molecule, the bioavailability [9] was 5%, the “Ratio IC50” value (Plasmodium falciparum [10]) was 150 and the half-life [11] was 63.9 h. For the same molecule, the MIC (Haemophilus influenzae) was > 64 mg/L and the clearance [12] was 2.86 L/h/kg.

In the case of CC[C@H]1OC(=O)[C@H](C)[C@@H](O)[C@H](C)[C@@H](O[C@@H]2O[C@H](C)C[C@H](N(C)CCCNC(=O)CCCNc3ccnc4cc(Cl)ccc34)[C@H]2O)[C@](C)(O)C[C@@H](C)CN(C)[C@H](C)[C@@H](O)[C@]1(C)O, the MIC (Streptococcus pyogenes) is reported as > 64 mg/L, the IC50 (Plasmodium falciparum [4]) is reported as 0.636 µM and the MIC (Moraxella catarrhalis) is reported as > 64 mg/L. For the same molecule, the “Ratio IC50” value (Plasmodium falciparum [5]) was 9, the MIC (Streptococcus pneumoniae) was > 64 mg/L and the IC50 (HepG2) was > 50 µM. The IC50 (Plasmodium falciparum [6]) was 0.295 µM, the MIC (Staphylococcus aureus) was > 64 mg/L and the “Ratio IC50” value (Plasmodium falciparum [10]) was 9. The MIC (Haemophilus influenzae) was > 64 mg/L.

For CC[C@H]1OC(=O)[C@H](C)[C@@H](O[C@H]2C[C@@](C)(OC)[C@@H](O)[C@H](C)O2)[C@H](C)[C@@H](O[C@@H]2O[C@H](C)C[C@H](N(C)CCCNc3ccnc4cc(Cl)ccc34)[C@H]2O)[C@](C)(O)C[C@@H](C)CN(C)[C@H](C)[C@@H](O)[C@]1(C)O, the MIC (Streptococcus pyogenes) was 16 mg/L (≈ 16.8 µM), the MIC (Moraxella catarrhalis) was 1 mg/L (≈ 1.05 µM) and the MIC (Streptococcus pneumoniae) was 8 mg/L (≈ 8.39 µM). For the same molecule, the IC50 (HepG2) was 3 µM, the MIC (Staphylococcus aureus) was > 64 mg/L and the MIC (Haemophilus influenzae) was > 64 mg/L.

In the case of CC[C@H]1OC(=O)[C@H](C)[C@@H](O)[C@H](C)[C@@H](O[C@@H]2O[C@H](C)C[C@H](N(C)CCCNc3ccnc4cc(Cl)ccc34)[C@H]2O)[C@](C)(O)C[C@@H](C)CN(C)[C@H](C)[C@@H](O)[C@]1(C)O, the MIC (Streptococcus pyogenes) is reported as > 64 mg/L, the MIC (Moraxella catarrhalis) is reported as 32 mg/L (≈ 40.2 µM) and the MIC (Streptococcus pneumoniae) is reported as > 64 mg/L. The IC50 (HepG2) was 14 µM, the MIC (Staphylococcus aureus) was > 64 mg/L and the MIC (Haemophilus influenzae) was > 64 mg/L.

With CC[C@H]1OC(=O)[C@H](C)[C@@H](O[C@H]2C[C@@](C)(OC)[C@@H](O)[C@H](C)O2)[C@H](C)[C@@H](O[C@@H]2O[C@H](C)C[C@H](N(C)C(=O)CCCNc3ccnc4cc(Cl)ccc34)[C@H]2O)[C@](C)(O)C[C@@H](C)CN(C)[C@H](C)[C@@H](O)[C@]1(C)O the “Ratio IC50” value (Plasmodium falciparum [1]) was 5, the MIC (Streptococcus pyogenes) was 16 mg/L (≈ 16.3 µM) and the IC50 (Plasmodium falciparum [4]) was 0.104 µM. For the same molecule, the MIC (Moraxella catarrhalis) was 4 mg/L (≈ 4.07 µM), the “Ratio IC50” value (Plasmodium falciparum [5]) was 111 and the MIC (Streptococcus pneumoniae) was 8 mg/L (≈ 8.15 µM). The IC50 (HepG2) was > 50 µM, the IC50 (Plasmodium falciparum [6]) was 0.093 µM and the MIC (Staphylococcus aureus) was > 64 mg/L. For the same molecule, the “Ratio IC50” value (Plasmodium falciparum [10]) was 29 and the MIC (Haemophilus influenzae) was > 64 mg/L.

CC[C@H]1OC(=O)[C@H](C)[C@@H](O[C@H]2C[C@@](C)(OC)[C@@H](O)[C@H](C)O2)[C@H](C)[C@@H](O[C@@H]2O[C@H](C)C[C@H](N(C)C(=O)CNc3ccnc4cc(Cl)ccc34)[C@H]2O)[C@](C)(O)C[C@@H](C)CN(C)[C@H](C)[C@@H](O)[C@]1(C)O gave an MIC (Streptococcus pyogenes) of 4 mg/L (≈ 4.19 µM), an IC50 (Plasmodium falciparum [4]) of 0.01 µM and an MIC (Moraxella catarrhalis) of 8 mg/L (≈ 8.39 µM). It also gave an MIC (Streptococcus pneumoniae) of 2 mg/L (≈ 2.1 µM), an IC50 (HepG2) of 27 µM and an IC50 (Plasmodium falciparum [6]) of 0.013 µM. For the same molecule, the MIC (Staphylococcus aureus) was 16 mg/L (≈ 16.8 µM) and the MIC (Haemophilus influenzae) was > 64 mg/L.

For CC[C@H]1OC(=O)[C@H](C)[C@@H](O[C@H]2C[C@@](C)(OC)[C@@H](O)[C@H](C)O2)[C@H](C)[C@@H](O[C@@H]2O[C@H](C)C[C@H](N(C)Cc3cn(CCCNc4ccnc5cc(Cl)ccc45)nn3)[C@H]2O)[C@](C)(O)C[C@@H](C)CN(C)[C@H](C)[C@@H](O)[C@]1(C)O, the MIC (Streptococcus pyogenes) was 0.5 mg/L (≈ 0.483 µM), the MIC (Moraxella catarrhalis) was 2 mg/L (≈ 1.93 µM) and the MIC (Streptococcus pneumoniae) was 0.5 mg/L (≈ 0.483 µM). For the same molecule, the MIC (Staphylococcus aureus) was 16 mg/L (≈ 15.5 µM) and the MIC (Haemophilus influenzae) was > 64 mg/L.

Molecule CC[C@H]1OC(=O)[C@H](C)[C@@H](O[C@H]2C[C@@](C)(OC)[C@@H](O)[C@H](C)O2)[C@H](C)[C@@H](O[C@@H]2O[C@H](C)C[C@H](N(C)C)[C@H]2O)[C@](C)(O)C[C@@H](C)CN(C)[C@H](C)[C@@H](O)[C@]1(C)O [AZITHROMYCIN] has an MIC (Streptococcus pyogenes) of 0.125 mg/L (≈ 0.167 µM), an IC50 (Plasmodium falciparum [4]) of 11.5 µM and an MIC (Moraxella catarrhalis) of 0.06 mg/L (≈ 0.0801 µM). It also gave an MIC (Streptococcus pneumoniae) of 0.06 mg/L (≈ 0.0801 µM), an IC50 (HepG2) of 203 µM and an IC50 (Plasmodium falciparum [6]) of 2.68 µM. It also gave an MIC (Staphylococcus aureus) of 1 mg/L (≈ 1.34 µM) and an MIC (Haemophilus influenzae) of 2 mg/L (≈ 2.67 µM).

Reference: ChEMBL document CHEMBL1944516, “Novel hybrid molecules based on 15-membered azalide as potential antimalarial agents” (Eur J Med Chem, 2012)
